# The supplement of paper PMC10307832
# Columns and labels:
# Assay in all cases: relative viability (nuclei count vs DMSO), 5 days (fraction); higher = more cells survive
# [1] = compound: CC[C@H](Nc1ncnc2[nH]cnc12)c1nc2cccc(F)c2c(=O)n1-c1ccccc1 [Idelalisib] + C[C@@H](Oc1cc(-c2cnn(C3CCNCC3)c2)cnc1N)c1c(Cl)ccc(F)c1Cl [Crizotinib] (partner 1 µM)
# In short: (§1)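 Lung cancer cell lines in 1536-well plates were dosed by pin tool the day after seeding, either with one drug alone or with a fixed anchor-drug dose plus five library-drug doses (not always all listed) in √10 steps. After 5 days, cells were fixed and their nuclei stained in one step (final 0.05% Triton X-100, 1% formaldehyde, 1 ug/ml Hoechst), then counted on 4× images. Relative viability is the nuclei count in treated wells divided by that in vehicle wells. Values are medians of duplicate plates.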
# [2] = compound: Nc1nc2[nH]cc(CCc3ccc(C(=O)N[C@@H](CCC(=O)O)C(=O)O)cc3)c2c(=O)[nH]1 [Pemetrexed] + Nc1ncn([C@H]2C[C@H](O)[C@@H](CO)O2)c(=O)n1 [Decitabine] (partner 2 µM)
# In short: as §1
# [3] = compound: CC[C@H](Nc1ncnc2[nH]cnc12)c1nc2cccc(F)c2c(=O)n1-c1ccccc1 [Idelalisib] + O=C(c1cc(Cc2n[nH]c(=O)c3ccccc23)ccc1F)N1CCN(C(=O)C2CC2)CC1 [Olaparib] (partner 8 µM)
# In short: as §1
# [4] = compound: Nc1nc2[nH]cc(CCc3ccc(C(=O)N[C@@H](CCC(=O)O)C(=O)O)cc3)c2c(=O)[nH]1 [Pemetrexed] + CS(=O)(=O)CCNCc1ccc(-c2ccc3ncnc(Nc4ccc(OCc5cccc(F)c5)c(Cl)c4)c3c2)o1 [Lapatinib] (partner 2 µM)
# In short: as §1
Cell Line,relative viability ([1]; first compound 0.04 µM),relative viability ([1]; first compound 0.1265 µM),relative viability ([1]; first compound 0.4 µM),relative viability ([1]; first compound 1.265 µM),relative viability ([1]; first compound 4 µM),relative viability ([2]; first compound 0.002 µM),relative viability ([2]; first compound 0.006325 µM),relative viability ([2]; first compound 0.02 µM),relative viability ([2]; first compound 0.06325 µM),relative viability ([2]; first compound 0.2 µM),relative viability ([3]; first compound 0.04 µM),relative viability ([3]; first compound 0.1265 µM),relative viability ([3]; first compound 0.4 µM),relative viability ([3]; first compound 1.265 µM),relative viability ([3]; first compound 4 µM),relative viability ([4]; first compound 0.002 µM),relative viability ([4]; first compound 0.006325 µM),relative viability ([4]; first compound 0.02 µM),relative viability ([4]; first compound 0.06325 µM),relative viability ([4]; first compound 0.2 µM)
LU99A,0.625,0.638,0.578,0.614,0.643,0.802,0.753,0.947,0.865,0.887,0.251,0.25,0.274,0.206,0.241,0.926,0.909,0.991,0.97,0.744
HOP-62,0.944,0.964,–,0.806,1.03,0.198,0.262,0.249,0.204,0.2,0.306,0.538,0.442,0.387,0.498,0.885,1.07,0.898,1.14,0.982
HCC-15,0.809,0.842,0.72,0.885,0.762,0.483,0.604,0.684,0.406,0.191,0.743,0.583,0.699,0.799,0.707,0.751,0.763,1,0.655,0.444
HARA,1.2,0.988,0.894,0.988,0.991,0.486,0.457,0.659,0.437,0.234,0.738,0.998,–,0.758,0.792,0.681,0.747,1.01,0.674,0.365
SK-MES-1,1.06,0.959,0.888,0.876,0.789,0.369,0.331,0.408,0.421,0.367,0.736,0.711,0.679,0.636,0.448,0.473,0.423,0.469,0.453,0.457
NCI-H1355,1.21,1.13,0.977,0.988,0.902,0.33,0.354,0.336,0.332,0.355,0.78,0.694,0.632,0.776,0.673,0.783,1.05,0.991,1.04,0.975
NCI-H727,0.81,0.798,0.76,1,0.797,0.922,0.796,0.835,0.792,0.865,0.813,0.624,0.688,0.779,0.836,0.802,0.825,0.634,0.844,0.773
NCI-H520,0.782,0.727,0.717,0.737,0.623,0.504,0.453,0.538,0.479,0.494,0.34,0.364,0.276,0.302,0.269,0.803,0.886,0.833,0.829,0.838
NCI-H838,0.791,0.906,0.724,0.8,0.695,0.475,0.45,0.516,0.365,0.274,0.779,0.794,0.745,0.775,0.564,0.904,0.93,1.35,0.856,0.329
HCC-44,0.822,0.857,0.819,0.948,0.85,0.854,0.909,1.02,0.922,0.905,1.05,0.998,0.962,1.04,1.05,0.928,1,1.03,1.02,0.874
LK-2,0.264,0.205,–,0.215,0.235,0.277,0.358,0.259,0.251,0.263,0.874,0.631,–,0.983,0.609,0.863,0.877,1.13,0.775,0.521
HCC-827,0.978,0.943,0.864,0.927,0.838,0.264,0.341,0.409,0.214,0.305,0.667,0.613,0.612,0.571,0.491,0.178,0.196,0.169,0.191,0.166
SW 1573,0.794,0.682,0.836,0.832,0.833,0.577,0.662,0.615,0.53,0.525,0.465,0.426,0.364,0.521,0.431,1.12,1.11,1.19,1.07,1.12
NCI-H2023,0.63,0.662,0.487,0.579,0.54,0.181,0.206,0.246,0.173,0.125,0.463,0.495,0.542,0.436,0.472,0.292,0.726,1.01,0.66,0.202
EPLC-272H,0.891,0.853,0.753,0.739,0.748,0.348,0.377,0.413,0.33,0.296,1.01,0.916,0.686,0.637,0.619,0.806,1.04,1.16,0.972,1.04
SK-LU-1,0.923,1.06,0.826,0.777,0.826,0.617,0.659,0.699,0.642,0.603,0.584,0.492,0.41,0.424,0.464,0.772,0.853,0.96,0.804,0.695

Cell Line,relative viability ([1]; first compound 0.04 µM),relative viability ([1]; first compound 0.1265 µM),relative viability ([1]; first compound 0.4 µM),relative viability ([1]; first compound 1.265 µM),relative viability ([1]; first compound 4 µM),relative viability ([2]; first compound 0.002 µM),relative viability ([2]; first compound 0.006325 µM),relative viability ([2]; first compound 0.02 µM),relative viability ([2]; first compound 0.06325 µM),relative viability ([2]; first compound 0.2 µM),relative viability ([3]; first compound 0.04 µM),relative viability ([3]; first compound 0.1265 µM),relative viability ([3]; first compound 0.4 µM),relative viability ([3]; first compound 1.265 µM),relative viability ([3]; first compound 4 µM),relative viability ([4]; first compound 0.002 µM),relative viability ([4]; first compound 0.006325 µM),relative viability ([4]; first compound 0.02 µM),relative viability ([4]; first compound 0.06325 µM),relative viability ([4]; first compound 0.2 µM)
NCI-H358,0.646,0.579,0.496,0.549,0.516,0.177,0.208,0.214,0.155,0.127,0.562,0.586,0.522,0.606,0.516,0.4,0.4,0.441,0.311,0.276
ABC-1,0.95,1.23,1.14,1.04,0.902,1.15,1.02,1.32,0.997,1.19,0.947,0.913,0.78,0.97,0.68,1.35,1.16,1.25,1.05,1.16
NCI-H2085,0.86,0.897,0.761,0.736,0.81,0.584,0.513,0.53,0.527,0.642,0.642,0.743,0.767,0.741,0.677,0.717,0.692,0.88,0.801,0.768
NCI-H2087,0.894,0.911,0.901,1.1,0.93,0.268,0.237,0.332,0.238,0.262,0.498,0.628,0.517,0.658,0.591,0.965,0.952,1.21,0.927,0.644
NCI-H322M,1,0.842,0.792,0.687,0.809,0.722,0.642,0.655,0.794,0.612,0.652,0.813,0.781,0.747,0.77,0.642,0.531,0.657,0.551,0.618
NCI-H1734,0.789,0.639,0.604,0.685,0.527,0.485,0.472,0.52,0.517,0.427,0.578,0.578,0.561,0.607,0.704,0.724,0.995,1.13,1.01,0.525
EKVX,0.83,0.897,0.633,0.753,0.752,0.405,0.257,0.368,0.316,0.325,0.756,0.915,0.755,0.884,0.74,0.17,0.191,0.194,0.185,0.182
NCI-H596,1.02,0.902,0.886,0.923,0.948,0.996,1.03,0.972,0.839,0.553,0.662,0.667,0.707,0.647,0.675,1.03,1.09,1.07,0.82,0.644
NCI-H1975,1.08,0.944,0.817,1,0.81,0.322,0.403,0.378,0.291,0.223,0.787,0.835,0.741,0.778,0.615,–,0.885,0.906,0.78,0.423
NCI-H2170,1.23,1.18,1.07,1.07,0.983,0.436,0.48,0.458,0.462,0.459,0.606,0.679,0.643,0.558,0.515,0.302,0.282,0.268,0.293,0.297
NCI-H1666,0.953,1.03,0.809,0.964,0.721,0.637,0.724,0.712,0.594,0.612,0.704,0.758,0.733,0.747,0.724,0.678,0.647,0.566,0.575,0.394
PC-3 [JPC-3],1,1.04,0.94,0.98,0.881,0.765,0.845,0.956,0.837,0.857,1.09,1.23,1.08,1.13,0.953,0.423,0.502,0.501,0.471,0.451
NCI-H1755,0.812,0.878,0.832,0.745,0.671,0.708,0.738,0.734,0.693,0.695,0.881,0.892,0.842,0.801,0.821,0.808,1,1.03,1.04,0.894
RERF-LC-KJ,0.94,0.845,0.847,0.785,0.861,0.609,0.753,0.801,0.721,0.415,0.873,0.941,0.864,0.892,0.814,0.739,0.835,0.842,0.892,0.692
NCI-H647,1.43,1.03,0.815,0.859,0.7,0.263,0.366,0.515,0.39,0.233,0.623,0.602,0.489,0.614,0.281,–,1.08,1.16,0.889,0.264
BEN,0.875,1.06,0.751,0.886,0.661,0.657,0.767,0.813,0.668,0.719,1.02,0.955,1.02,1.12,0.847,0.811,0.594,0.817,0.663,0.624
